Measurements as given in ChEMBL document CHEMBL1201862, “PubChem BioAssay data set” (2004).
Calls of active or inactive are those of the source. Cut-off read from the data, not from the text of the source, for most assays here: actives have a measured EC50 and inactives only a lower limit.

System: not listed separately
Assay: NIH-3T3 fibroblast cytotoxicity, dose response, cytotoxicity control, cell-based, fluorescence, Alamar Blue, secondary assay (AID 2327);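 note: NIH-3T3 mouse fibroblasts cultured with fluconazole at 8 µg/mL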
Type: functional
Details: not given

| SMILES | EC50 |
| --- | --- |
| Brc1ccc(-c2nnc3sc(CN4CCN(c5ccccc5)CC4)cn23)cc1 | > 150 µM (inactive) |

Biological target: T1, Leucine aminopeptidase (Plasmodium falciparum 3D7, UniProt Q8IL11)
T1 sequence (Q8IL11 whole entry): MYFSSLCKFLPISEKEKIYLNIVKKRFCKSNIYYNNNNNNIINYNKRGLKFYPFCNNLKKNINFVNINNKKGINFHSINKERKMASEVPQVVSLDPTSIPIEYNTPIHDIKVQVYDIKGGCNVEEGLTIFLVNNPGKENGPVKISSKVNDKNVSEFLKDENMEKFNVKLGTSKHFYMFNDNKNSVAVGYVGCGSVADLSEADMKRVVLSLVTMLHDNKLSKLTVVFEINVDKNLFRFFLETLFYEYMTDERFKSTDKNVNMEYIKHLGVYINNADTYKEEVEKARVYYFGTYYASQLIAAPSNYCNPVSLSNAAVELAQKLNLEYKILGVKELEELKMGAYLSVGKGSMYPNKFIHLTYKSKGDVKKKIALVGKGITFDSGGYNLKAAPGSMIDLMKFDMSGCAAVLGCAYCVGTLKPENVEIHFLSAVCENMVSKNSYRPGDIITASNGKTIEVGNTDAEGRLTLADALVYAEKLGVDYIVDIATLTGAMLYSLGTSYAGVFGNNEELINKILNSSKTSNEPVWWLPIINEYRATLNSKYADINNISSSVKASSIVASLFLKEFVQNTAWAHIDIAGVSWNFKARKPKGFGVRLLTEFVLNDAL
Assay: P. falciparum M17LAP inhibitors, primary screen, biochemical, fluorogenic H-Leu-NHMec substrate, 1536-well (AID 1619)
Type: functional
Details: not given

| SMILES | IC50 |
| --- | --- |
| O=C(CN1C(=O)C2C3C=CC(C3)C2C1=O)NCC1COc2ccccc2O1 (centres undefined) | 2.19 µM (active) |
| CC1=NNC(=O)C1CCC(=O)N/N=C\c1cccc(Cl)c1 (centres undefined) | 20.9 µM (active) |
| CCCOc1ccc(N2C(=O)CC(SCCN)C2=O)cc1 (centres undefined) | 12 µM (active) |

System: not listed separately
Assay: HEp-2 cell cytotoxicity, dose response, cytotoxicity control for RSV inhibitor project, HTS (AID 2410)
Type: functional
Details: human respiratory syncytial virus

| SMILES | CC50 |
| --- | --- |
| Oc1ccccc1N1CCN(c2ncnc3sc(-c4ccccc4)cc23)CC1 | 14.2 µM (active) |

System: not listed separately
Assay: Luminescence Cell-Based Dose Confirmation HTS to Identify Activators of 5'UTR Stem-Loop Driven Alpha-Synuclein mRNA Translation in H4 Neuroglioblastoma Cells. [Related pubchem assays: 1829 (Project Summary), 1814 (Primary HTS)]
Type: functional
Details: not given

| SMILES | EC50 |
| --- | --- |
| COC(=O)C1=C(NC(=O)c2ccc(C)c(C)c2)CCS1 | > 120 µM (not active) |

System: not listed separately
Assay: Luminescence Cell-Based Dose Response HTS to Identify Activators of Luciferase Translation or Activity in H4 […] Cells. [Related pubchem assays: 1829 (Project Summary), 1814 (Primary HTS)]
Type: functional
Details: not given

| SMILES | EC50 |
| --- | --- |
| COC(=O)C1=C(NC(=O)c2ccc(C)c(C)c2)CCS1 | 13.3 µM (active) |

System: BJ
Assay: cytotoxicity toward BJ-TERT fibroblasts, dose response, cell-based, RAS-independent, luminescence (AID 1933)
Type: functional
Details: Homo sapiens

| SMILES | EC50 |
| --- | --- |
| COc1ccc(-n2c(SCC(=O)Nc3ncc(Cl)cc3Cl)nc3ccccc32)cc1 | 27.8 µM (active) |
| COc1ccc(/C=C(\C#N)c2c[nH]c3ccccc23)cc1 | 0.706 µM (inconclusive) |
| O=C(Cc1ccc(N2CCNC2=O)cc1)N1CCCC(Nc2ccc(F)c(F)c2)C1 (centres undefined) | 9.17 µM (inconclusive) |
| Brc1ccc(-c2nnc3sc(CN4CCN(c5ccccc5)CC4)cn23)cc1 | > 150 µM (not active) |

System: H4
Assay: Luminescence Cell-Based Dose Response HTS to Identify Activators of 5'UTR Stem-Loop Driven Prion Protein mRNA Translation in H4 Neuroglioblastoma Cells. [Related pubchem assays: 1829 (Project Summary), 1814 (Primary HTS)]
Type: functional
Details: Homo sapiens

| SMILES | EC50 |
| --- | --- |
| COC(=O)C1=C(NC(=O)c2ccc(C)c(C)c2)CCS1 | 19 µM (active) |

System: BJ
Assay: cells
Type: functional, cell-based
Details: Homo sapiens

| SMILES | EC50 |
| --- | --- |
| COc1ccc(-n2c(SCC(=O)Nc3ncc(Cl)cc3Cl)nc3ccccc32)cc1 | 139 µM (active) |
| COc1ccc(/C=C(\C#N)c2c[nH]c3ccccc23)cc1 | 20 µM (inconclusive) |
| O=C(Cc1ccc(N2CCNC2=O)cc1)N1CCCC(Nc2ccc(F)c(F)c2)C1 (centres undefined) | 3.98 µM (active) |
| Brc1ccc(-c2nnc3sc(CN4CCN(c5ccccc5)CC4)cn23)cc1 | > 150 µM (not active) |

System: not listed separately
Assay: C. albicans growth with fluconazole, confirmation, fluorescence, retest (AID 2467)
Type: functional, cell-based
Details: not given

| SMILES | EC50 |
| --- | --- |
| Brc1ccc(-c2nnc3sc(CN4CCN(c5ccccc5)CC4)cn23)cc1 | 2.14 µM (active) |

Biological target: Luciferin 4-monooxygenase (Photinus pyralis, UniProt P08659)
Assay: firefly luciferase enzyme inhibitors, dose response, biochemical, luminescence (AID 1891)
Details: not given

Luciferin 4-monooxygenase, sequence (P08659 whole entry): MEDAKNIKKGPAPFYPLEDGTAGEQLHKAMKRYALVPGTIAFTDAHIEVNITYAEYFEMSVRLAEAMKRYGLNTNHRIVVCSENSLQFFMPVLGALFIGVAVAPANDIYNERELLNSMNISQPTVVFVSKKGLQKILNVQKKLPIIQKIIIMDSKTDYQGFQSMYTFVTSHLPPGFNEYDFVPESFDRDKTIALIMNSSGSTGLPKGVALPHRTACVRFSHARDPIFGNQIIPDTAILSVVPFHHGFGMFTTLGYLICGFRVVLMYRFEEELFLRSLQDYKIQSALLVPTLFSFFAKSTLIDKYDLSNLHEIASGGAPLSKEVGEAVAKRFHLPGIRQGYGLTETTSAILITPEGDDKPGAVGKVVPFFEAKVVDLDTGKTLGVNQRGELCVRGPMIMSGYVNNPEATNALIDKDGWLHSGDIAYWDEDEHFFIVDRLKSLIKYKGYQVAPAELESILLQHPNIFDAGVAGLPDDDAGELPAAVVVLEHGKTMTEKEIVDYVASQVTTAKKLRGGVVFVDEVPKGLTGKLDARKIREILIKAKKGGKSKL

| SMILES | EC50 |
| --- | --- |
| CC(=O)c1ccc(NC(=O)c2cc[nH]n2)cc1 | 31.4 µM (active) |
| Cc1ncc(CN2CCC(N3CCC(C(=O)N4CCCC4)CC3)CC2)s1 | > 112 µM (not active) |
| COc1ccc(-c2csc(CCn3nc(C)cc3C)n2)cc1OC | > 112 µM (not active) |
| CCC(=O)NCCc1nc2ccccc2n1Cc1ccc(C)cc1 | > 112 µM (not active) |
| Oc1ccccc1N1CCN(c2ncnc3sc(-c4ccccc4)cc23)CC1 | > 112 µM (not active) |
| O=C(NCCSc1c[nH]c2ccccc12)c1c(F)cccc1F | > 112 µM (not active) |
| O=C(O)C1C2C=CC(C2)C1C(=O)NCc1ccco1 (centres undefined) | > 112 µM (not active) |
| CCn1c(Cc2cccn2C)nnc1SCC(=O)c1ccc(C)cc1 | > 112 µM (not active) |
| CCCc1ccc(Oc2cc(N3CCOCC3)nc(-c3ccccc3)n2)cc1 | > 112 µM (not active) |
| Cc1ccccc1-c1nc(CS(=O)(=O)CC(=O)N2CCc3ccccc32)c(C)o1 | > 112 µM (not active) |
| COc1ccc(/C=C(/NC(=O)c2ccco2)C(=O)N2CCCCCC2)cc1OC | > 112 µM (not active) |

System: not listed separately
Assay: Luminescence Cell-Based Dose Confirmation HTS to Identify Inhibitors of Platelet Dense Granule Release. [Related pubchem assays: 1663 (Primary HTS), 1678 (Summary of Project)]
Type: functional
Details: not given

| SMILES | EC50 |
| --- | --- |
| CC(=O)c1ccc(NC(=O)c2cc[nH]n2)cc1 | 7.07 µM (active) |
| Cc1ncc(CN2CCC(N3CCC(C(=O)N4CCCC4)CC3)CC2)s1 | > 112 µM (not active) |
| COc1ccc(-c2csc(CCn3nc(C)cc3C)n2)cc1OC | > 112 µM (not active) |
| CCC(=O)NCCc1nc2ccccc2n1Cc1ccc(C)cc1 | > 112 µM (not active) |
| Oc1ccccc1N1CCN(c2ncnc3sc(-c4ccccc4)cc23)CC1 | > 112 µM (not active) |
| O=C(NCCSc1c[nH]c2ccccc12)c1c(F)cccc1F | > 112 µM (not active) |
| O=C(O)C1C2C=CC(C2)C1C(=O)NCc1ccco1 (centres undefined) | > 112 µM (not active) |
| CCn1c(Cc2cccn2C)nnc1SCC(=O)c1ccc(C)cc1 | > 112 µM (not active) |
| CCCc1ccc(Oc2cc(N3CCOCC3)nc(-c3ccccc3)n2)cc1 | > 112 µM (not active) |
| Cc1ccccc1-c1nc(CS(=O)(=O)CC(=O)N2CCc3ccccc32)c(C)o1 | > 112 µM (not active) |
| COc1ccc(/C=C(/NC(=O)c2ccco2)C(=O)N2CCCCCC2)cc1OC | > 112 µM (not active) |

System: BJ
Assay: cytotoxicity toward BJ-TERT-LT-ST fibroblasts, dose response, cell-based, RAS-independent, luminescence (AID 1935);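 note: BJ fibroblasts immortalized with TERT plus LT and ST oncogenes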
Type: functional
Details: Homo sapiens

| SMILES | EC50 |
| --- | --- |
| COc1ccc(-n2c(SCC(=O)Nc3ncc(Cl)cc3Cl)nc3ccccc32)cc1 | > 150 µM (inconclusive) |
| COc1ccc(/C=C(\C#N)c2c[nH]c3ccccc23)cc1 | 1.76 µM (inconclusive) |
| O=C(Cc1ccc(N2CCNC2=O)cc1)N1CCCC(Nc2ccc(F)c(F)c2)C1 (centres undefined) | 4.14 µM (active) |
| Brc1ccc(-c2nnc3sc(CN4CCN(c5ccccc5)CC4)cn23)cc1 | > 150 µM (not active) |

System: not listed separately
Assay: cytotoxicity toward DRD oncogenic fibroblasts, dose response, cell-based, non-viral oncogenic, luminescence (AID 1934)
Type: functional
Details: Homo sapiens

| SMILES | EC50 |
| --- | --- |
| COc1ccc(-n2c(SCC(=O)Nc3ncc(Cl)cc3Cl)nc3ccccc32)cc1 | 137 µM (active) |
| COc1ccc(/C=C(\C#N)c2c[nH]c3ccccc23)cc1 | 0.441 µM (active) |
| O=C(Cc1ccc(N2CCNC2=O)cc1)N1CCCC(Nc2ccc(F)c(F)c2)C1 (centres undefined) | 14.9 µM (inconclusive) |
| Brc1ccc(-c2nnc3sc(CN4CCN(c5ccccc5)CC4)cn23)cc1 | > 150 µM (not active) |

System: not listed separately
Assay: Luminescence Cell-Based Dose Retest to Confirm Inhibitors of Cancer Stem Cells. [Related pubchem assays (depositor defined):AID2717, AID2721]
Type: functional
Details: Homo sapiens

| SMILES | AC50 |
| --- | --- |
| COc1ccc(/C=C(\C#N)c2c[nH]c3ccccc23)cc1 | 0.203 µM (active) |
| Oc1ccccc1N1CCN(c2ncnc3sc(-c4ccccc4)cc23)CC1 | 3.87 µM (active) |

Biological target: T2, Heat shock factor protein 1 (Mus musculus, UniProt P38532)
T2 sequence (P38532 whole entry): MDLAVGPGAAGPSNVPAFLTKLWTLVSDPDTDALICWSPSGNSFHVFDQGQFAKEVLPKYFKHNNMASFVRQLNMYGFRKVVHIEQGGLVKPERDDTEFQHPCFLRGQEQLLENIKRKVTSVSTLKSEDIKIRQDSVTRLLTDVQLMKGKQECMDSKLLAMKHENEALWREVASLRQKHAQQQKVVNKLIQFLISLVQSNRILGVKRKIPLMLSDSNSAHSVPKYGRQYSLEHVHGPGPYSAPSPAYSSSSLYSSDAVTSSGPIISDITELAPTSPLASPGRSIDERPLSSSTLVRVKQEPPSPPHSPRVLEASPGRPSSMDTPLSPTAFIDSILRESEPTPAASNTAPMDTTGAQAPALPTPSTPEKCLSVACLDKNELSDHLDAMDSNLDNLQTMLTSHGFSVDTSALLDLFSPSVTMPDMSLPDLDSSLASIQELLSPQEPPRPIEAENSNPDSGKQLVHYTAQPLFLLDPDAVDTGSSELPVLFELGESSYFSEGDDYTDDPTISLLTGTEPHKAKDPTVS
Assay: HSF1 potentiators in luciferase reporter cells, confirmation, cell-based, NIH3T3, luminescence, dose retest (AID 435004);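 note: stress induced by proteasome inhibitor MG132 added 30 min after compound; luciferase reporter driven by HSF1 response element in NIH3T3 cells; actives raise luminescence as potentiators of the MG132 stress response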
Type: functional
Details: not given

| SMILES | EC50 |
| --- | --- |
| COc1ccc(/C=C(\C#N)c2c[nH]c3ccccc23)cc1 | 39.2 µM (active) |

Biological target: T3, Polyadenylate-binding protein 1 (Homo sapiens, UniProt P11940)
Assay: PABP1 MLLE–PAM2 interaction inhibitors, dose response, miRNA deadenylation inhibitor project, biochemical, fluorescence polarization, Cy5-PAM2 peptide, secondary (AID 602260)
Type: functional
Details: read-out: IC50_Mean

T3 sequence (P11940 whole entry): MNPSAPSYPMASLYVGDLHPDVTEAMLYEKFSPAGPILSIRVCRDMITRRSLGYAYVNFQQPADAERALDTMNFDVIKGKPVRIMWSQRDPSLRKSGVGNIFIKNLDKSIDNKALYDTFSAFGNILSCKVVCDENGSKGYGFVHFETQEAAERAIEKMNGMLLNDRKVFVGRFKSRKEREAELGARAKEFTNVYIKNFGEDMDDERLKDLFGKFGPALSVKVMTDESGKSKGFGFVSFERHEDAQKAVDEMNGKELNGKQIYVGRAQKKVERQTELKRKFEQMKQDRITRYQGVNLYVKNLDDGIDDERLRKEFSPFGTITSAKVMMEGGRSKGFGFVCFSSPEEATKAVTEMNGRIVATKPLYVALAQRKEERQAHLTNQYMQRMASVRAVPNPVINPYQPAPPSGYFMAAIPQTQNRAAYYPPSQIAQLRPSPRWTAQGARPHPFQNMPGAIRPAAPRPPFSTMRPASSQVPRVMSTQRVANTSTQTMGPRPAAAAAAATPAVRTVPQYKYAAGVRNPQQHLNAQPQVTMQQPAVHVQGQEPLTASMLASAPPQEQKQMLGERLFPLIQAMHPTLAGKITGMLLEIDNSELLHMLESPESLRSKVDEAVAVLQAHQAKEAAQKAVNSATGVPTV

| SMILES | IC50 |
| --- | --- |
| COC(=O)C1=C(NC(=O)c2ccc(C)c(C)c2)CCS1 | > 66 µM (inactive) |

Biological target: T3, Polyadenylate-binding protein 1
Assay: PABP1 MLLE–PAM2 binding inhibitor potency, dose response, biochemical, fluorescence polarization, FITC-PAM2 peptide (AID 602259)
Type: functional
Details: read-out: IC50_Mean

| SMILES | IC50 |
| --- | --- |
| COC(=O)C1=C(NC(=O)c2ccc(C)c(C)c2)CCS1 | > 66 µM (inactive) |

Biological target: Cytochrome P450 2D6 (Homo sapiens, UniProt P10635);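 note: CYP2D6 member of a cytochrome P450 panel assay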
Assay: not given
Details: not given

Cytochrome P450 2D6, sequence (P10635 whole entry): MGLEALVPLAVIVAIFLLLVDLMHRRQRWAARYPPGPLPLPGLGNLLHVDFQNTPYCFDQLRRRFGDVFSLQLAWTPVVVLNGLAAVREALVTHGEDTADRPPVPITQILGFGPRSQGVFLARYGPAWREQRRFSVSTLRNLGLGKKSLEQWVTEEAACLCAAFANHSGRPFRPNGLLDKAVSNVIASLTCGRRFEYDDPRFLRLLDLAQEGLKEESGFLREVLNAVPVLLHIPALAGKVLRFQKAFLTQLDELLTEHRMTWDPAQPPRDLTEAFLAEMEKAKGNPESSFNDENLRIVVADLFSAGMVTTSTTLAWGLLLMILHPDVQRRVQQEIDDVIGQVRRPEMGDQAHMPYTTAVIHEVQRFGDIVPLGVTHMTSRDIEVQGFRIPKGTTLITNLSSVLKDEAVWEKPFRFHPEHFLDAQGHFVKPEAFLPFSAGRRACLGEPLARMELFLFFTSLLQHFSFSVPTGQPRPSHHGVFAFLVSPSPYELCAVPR

| SMILES | AC50 |
| --- | --- |
| COC(=O)C1=C(NC(=O)c2ccc(C)c(C)c2)CCS1 | 31.6 µM (inconclusive) |

Biological target: Cytochrome P450 2C9 (Homo sapiens, UniProt P11712)
Assay: not given
Details: not given

Cytochrome P450 2C9, sequence (P11712 whole entry): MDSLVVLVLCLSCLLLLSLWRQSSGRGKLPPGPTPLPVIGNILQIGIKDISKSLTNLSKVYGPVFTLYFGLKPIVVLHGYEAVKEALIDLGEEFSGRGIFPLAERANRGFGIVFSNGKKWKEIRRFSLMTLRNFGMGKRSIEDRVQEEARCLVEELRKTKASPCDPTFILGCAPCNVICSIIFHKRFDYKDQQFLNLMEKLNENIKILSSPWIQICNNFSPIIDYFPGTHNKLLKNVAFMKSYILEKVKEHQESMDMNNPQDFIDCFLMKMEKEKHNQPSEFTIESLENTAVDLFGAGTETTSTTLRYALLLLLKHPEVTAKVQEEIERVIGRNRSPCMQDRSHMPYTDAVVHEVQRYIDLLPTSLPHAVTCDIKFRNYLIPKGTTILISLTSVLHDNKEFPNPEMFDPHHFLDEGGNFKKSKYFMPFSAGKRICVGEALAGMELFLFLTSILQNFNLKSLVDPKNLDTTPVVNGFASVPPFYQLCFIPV

| SMILES | AC50 |
| --- | --- |
| COC(=O)C1=C(NC(=O)c2ccc(C)c(C)c2)CCS1 | 14.1 µM (inconclusive) |
